Data taken from patent US7285528B2, “Agonists and antagonists of gonadotropin-releasing hormone-2, and use thereof” (priority 2002, dated 2007).
Where a SMILES comes first, the peptide text is derived from it. [ ]: non-standard residue; d: D form. dPhe(4-Cl) = N[C@H](Cc1ccc(Cl)cc1)C(=O)O; d2Nal = N[C@H](Cc1ccc2ccccc2c1)C(=O)O; dCit = NC(=O)NCCC[C@@H](N)C(=O)O; d3Pal = N[C@H](Cc1cccnc1)C(=O)O

What was measured:
[1] = tested on: bfGnRHR-3; assay: Ligand-receptor binding assay, I125-GnRH-2 competition, membranes of GH3 cells expressing bfGnRHR-3; parameters: species or system bullfrog; conditions: log of IC50 (negative values); competition with I125-GnRH-2, 4° C., 16 hours
Method: To determine the binding affinity between GnRH and GnRH receptors, GnRH-2 was radiolabeled with I^125. The GH3 cells expressing bfGnRHR-1, bfGnRHR-2, bfGnRHR-3, and rat GnRHR constructed in Example 2-3 above were cultured on 100-mm dishes. After 48 hours, the cells were homogenized to obtain cellular membranes, which were then dissolved in binding buffer (40 mM Tris, pH 7.4, 2 mM MgCl2). 20 μg of membrane proteins were reacted with I^125-GnRH-2 at 4° C. for 16 hours. […] After the reaction was completed, 1^125-GnRH-2 bound to the receptors was filtered using a Brandel harvester, and cpm was measured using a γ-counter.
The GH3 cells expressing bfGnRHR-3 obtained from Example 6-1 above were treated with l^125GnRH-2 and GnRH-2 agonists and antagonists at various concentrations to determine the binding affinity of GnRH-2 agonists and antagonists toward the receptors.

[2] = tested on: bfGnRHR-2; assay: Inhibition of GnRH-2-induced IP production, GH3 cells expressing bfGnRHR-2; assay type: cell-based, bullfrog
Method: (§1) GH3 cell lines were obtained from the Cell Line Bank at the Cancer Research Center, Seoul National University College of Medicine, located in Seoul, Republic of Korea. The GH3 cell lines were infected with retroviruses comprising genes encoding bfGnRHR-1, bfGnRHR-2, and bfGnRHR-3 which are bullfrog GnRH receptors, and rat GnRHR, and cell lines expressing each of these receptors were obtained. The GH3 cells expressing bfGnRHR-1, bfGnRHR-2, bfGnRHR-3, and rat GnRHR were cultured on 12-well plates. After 24 hours, the cells were cultured again for 24 hours in a media containing no inositol, to which H^3-myoinositol was added. The resultant cells were washed with buffer A (140 mM NaCl, 20 mM HEPES, 4 mM KCl, 8 mM D-Glucose, 1 mM MgCl2, 1 mM CaCl2, 1 mg/ml BSA) and then cultured in buffer A containing 10 mM LiCl at 37°C. for 30 minutes. Thereafter, they were treated with GnRH having a suitable concentration, cultured at 37° C. for another 30 minutes, and then the media was eliminated. The cells were treated with 10 mM of ice-cold formic acid to terminate the reaction, and the cell extracts were mixed with Dowex anionic exchange resins. These resins were washed with distilled water, IP was extracted with 1 M ammonium formate/0.1 M formic acid, and cpm (count per minute) was determined.

[3] = target: T1, rat GnRHR (Rattus norvegicus, UniProt P30969); assay: Inhibition of GnRH-induced IP production, GH3 cells expressing rat GnRHR; assay type: cell-based; conditions: rat GnRH receptors
T1 construct: expressed in transfected cells; host or cells: GH3 cells, retrovirus-mediated infection
T1 sequence (P30969 1-327): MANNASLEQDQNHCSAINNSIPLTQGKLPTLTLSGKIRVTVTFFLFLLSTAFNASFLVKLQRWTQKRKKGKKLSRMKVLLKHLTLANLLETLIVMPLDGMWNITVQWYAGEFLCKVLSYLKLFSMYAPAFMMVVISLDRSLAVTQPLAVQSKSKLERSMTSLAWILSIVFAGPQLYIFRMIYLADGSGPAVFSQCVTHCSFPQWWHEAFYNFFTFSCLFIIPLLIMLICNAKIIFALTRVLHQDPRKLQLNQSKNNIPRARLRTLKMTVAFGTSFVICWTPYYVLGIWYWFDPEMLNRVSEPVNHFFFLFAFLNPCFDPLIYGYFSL
Method: as §1

[4] = target: T1, rat GnRHR; assay: Ligand-receptor binding assay, I125-GnRH-2 competition, membranes of GH3 cells expressing rat GnRHR; conditions: log of IC50 (negative values); competition with I125-GnRH-2, 4° C., 16 hours; read-out: Binding affinity (log IC50 value) (converted)
Method: To determine the binding affinity between GnRH and GnRH receptors, GnRH-2 was radiolabeled with I^125. […] After 48 hours, the cells were homogenized to obtain cellular membranes, which were then dissolved in binding buffer (40 mM Tris, pH 7.4, 2 mM MgCl2). 20 μg of membrane proteins were reacted with I^125-GnRH-2 at 4° C. for 16 hours. […] After the reaction was completed, 1^125-GnRH-2 bound to the receptors was filtered using a Brandel harvester, and cpm was measured using a γ-counter.

[5] = tested on: bfGnRHR-3; assay: Inhibition of GnRH-2-induced IP production, GH3 cells expressing bfGnRHR-3; assay type: cell-based, bullfrog
Method: as §1

[6] = tested on: Primate GnRH-2 receptor; assay: Inhibition of GnRH-2-induced c-fos-luc luciferase activity, cells expressing Primate GnRH-2 receptor; assay type: cell-based, Primates
Method: Complimentary DNA (cDNA) for a Primate GnRH-2 receptor was obtained from a CV-1 cell genome. […] Plasmids having Primate GnRH-2 receptors where transfected into CV-1 cells. To assay the activity of the receptor, c-fos-luc where a luciferase gene is fused with a c-fos promoter was co-transfected as a probe gene. After 48 hours from transfection, the cells were treated with GnRH-2 agonists and then the activity of luciferase was assayed (Seong et al., Endocrinology vol 144 2003, 454-466). In the same manner as in 2-3 above, Primate GnRH-2 receptors were co-transfected along with c-fos-luc reporter genes, and after 48 hours, GnRH-2 and GnRH-2 antagonists were treated thereinto at the same time and then the effect of GnRH-2 antagonists was observed. […] Log IC50 value by antagonists is an average value of experiments that were conducted independently three times. ND stands for “not detected” which means that there are no inhibitory functions.

[7] = log of IC50 (negative values), half-maximal inhibition of IP production induced by GnRH-2 (1 nM, 10 nM elsewhere in the source)
[8] = reduction of IP production induced by 1 nM GnRH-2

Structure (SMILES): CC(=O)N[C@H](Cc1ccc2ccccc2c1)C(=O)N[C@H](Cc1ccc(Cl)cc1)C(=O)N[C@H](Cc1cccnc1)C(=O)N[C@@H](CO)C(=O)N[C@@H](Cc1ccc(O)cc1)C(=O)N[C@H](CCCNC(N)=O)C(=O)N[C@@H](Cc1c[nH]c2ccccc12)C(=O)N[C@@H](Cc1ccc(O)cc1)C(=O)N1CCC[C@H]1C(=O)N[C@H](C)C(N)=O [Trptorelix-1, Ac-D2Nal-(4Cl)D-Phe-D-3Pal-Ser-Tyr-D-Cit-Trp-Tyr-Pro-DAlaNH2] (Ac-[d2Nal][dPhe(4-Cl)][d3Pal]SY[dCit]WYP[dA]-NH2)
- Binding affinity (log IC50 value) [1]: −11.73 ± 0.19
- Log IC50 [2, 7]: −8.10 ± 0.08
- fold more sensitive than Cetrorelix [2, 8]: 100 fold
- IP production by antagonist alone ([2]; without GnRH-2): production of IP was not observed
- fold lower effect than Cetrorelix [3]: ~60 fold
- IC50 [4]: 1.78 pM
- Log IC50 [5, 7]: −8.49 ± 0.11
- fold more sensitive than Cetrorelix [5, 8]: about 1000 fold
- IP production by antagonist alone ([5]; without GnRH-2): production of IP was not observed
- effect on luciferase activity induced by GnRH-2 ([6]; GnRH-2 and antagonist treated at the same time): reduced in a concentration-dependent manner
- Log IC50 ([6]; log of IC50 (negative values), reporter c-fos-luc, GnRH-2-induced luciferase, average of three experiments, ND = not detected, no inhibitory functions): −5.74 ± 0.10
